# From US20260285850A1, “SUBSTITUTED OXAZOLIDINONES AND IMIDAZOLINONES AS HERBICIDES” (FMC CORPORATION, priority 2023, published 2026)
# What was measured:
# Assay type in all cases: in vivo
# [1] = tested on: barnyardgrass (Echinochloa crusgalli); test: Test B flooded paddy test, visual plant response rating 0-100; settings: 250 g ai/ha, Flood, applied to paddy water, evaluated after 13 days
# Description: (§1) Plant species in the flooded paddy test selected from barnyardgrass (Echinochloa crusgalli), ducksalad (Heteranthera limosa), rice (Oryza sativa), and sedge, umbrella (small-flower umbrella sedge, Cyperus difformis) were grown to the 2-leaf stage for testing. At time of treatment, test pots were flooded to 3 cm above the soil surface, treated by application of test compounds directly to the paddy water, and then maintained at that water depth for the duration of the test. Treated plants and controls were maintained in a greenhouse for 13 days, after which time all species were compared to controls and visually evaluated. […] A dash (-) response means no test result.
# [2] = tested on: ducksalad (Heteranthera limosa); test: as above; settings: 250 g ai/ha, Flood, applied to paddy water, evaluated after 13 days
# Description: as §1
# rice (Oryza sativa) = test: as above; settings: 250 g ai/ha, Flood, applied to paddy water, evaluated after 13 days
# Description: as §1
# [3] = tested on: sedge, umbrella (small-flower umbrella sedge, Cyperus difformis); test: as above; settings: 250 g ai/ha, Flood, applied to paddy water, evaluated after 13 days
# Description: as §1
# [4] = tested on: barnyardgrass (Echinochloa crus-galli); test: Test A preemergence soil spray, visual injury rating 0-100; settings: 10 days
# Text: (§2) Seeds of plant species selected from barnyardgrass (Echinochloa crus-galli), blackgrass (Alopecurus myosuroides), corn (Zea mays), foxtail, giant (giant foxtail, Setaria faberi), green foxtail (Setaria viridis), goosegrass (Eleusine indica), kochia (Bassia scoparia), oat, wild (wild oat, Avena fatua), palmer (palmer amaranth, palmer pigweed, Amaranthus palmeri), ragweed (common ragweed, Ambrosia artemisiifolia), ryegrass, Italian (italian ryegrass, Lolium multiflorum), soybean (Glycine max) and wheat (Triticum aestivum) were planted into a blend of loam soil and sand and treated preemergence with a directed soil spray using test chemicals formulated in a non-phytotoxic solvent mixture which included a surfactant.
# (§3) At the same time, plants selected from these crops and weed species and also galium (catchweed bedstraw, Galium aparine) and horseweed (Erigeron canadensis) were planted in pots containing the same blend of loam soil and sand and treated with postemergence applications of test chemicals formulated in the same manner. Plants ranged in height from 2 to 10 cm and were in the one- to two-leaf stage for the postemergence treatment. Treated plants and untreated controls were maintained in a greenhouse for 10 days, after which time all treated plants were compared to untreated controls and visually evaluated for injury. Plant response ratings, summarized in Table A, are based on a 0 to 100 scale where 0 is no effect and 100 is complete control. A dash (-) response means no test result.
# [5] = tested on: blackgrass (Alopecurus myosuroides); test: as above; settings: 10 days
# Text: as §2, §3
# corn (Zea mays) [6] = test: as above; settings: 10 days
# Text: as §2, §3
# [7] = tested on: green foxtail (Setaria viridis); test: as above; settings: 10 days
# Text: as §2, §3
# kochia (Bassia scoparia) [8] = test: as above; settings: 10 days
# Text: as §2, §3
# [9] = tested on: oat, wild (wild oat, Avena fatua); test: as above; settings: 10 days
# Text: as §2, §3
# [10] = tested on: palmer (palmer amaranth, palmer pigweed, Amaranthus palmeri); test: as above; settings: 16 g ai/ha, 0 to 100 scale, 10 days
# Text: as §2, §3
# [11] = tested on: ragweed (common ragweed, Ambrosia artemisiifolia); test: as above; settings: 10 days
# Text: as §2, §3
# [12] = tested on: ryegrass, Italian (italian ryegrass, Lolium multiflorum); test: as above; settings: 10 days
# Text: as §2, §3
# soybean (Glycine max) [13] = test: as above; settings: 10 days
# Text: as §2, §3
# [14] = tested on: wheat (Triticum aestivum); test: as above; settings: 10 days
# Text: as §2, §3
# [15] = tested on: barnyardgrass (Echinochloa crus-galli); test: Test A postemergence application, visual injury rating 0-100
# Text: as §2, §3
# [16] = tested on: blackgrass (Alopecurus myosuroides); test: as above
# Text: as §2, §3
# corn (Zea mays) [17] = test: as above
# Text: as §2, §3
# [18] = tested on: green foxtail (Setaria viridis); test: as above
# Text: as §2, §3
# kochia (Bassia scoparia) [19] = test: as above
# Text: as §2, §3
# [20] = tested on: oat, wild (wild oat, Avena fatua); test: as above
# Text: as §2, §3
# [21] = tested on: palmer (palmer amaranth, palmer pigweed, Amaranthus palmeri); test: as above
# Text: as §2, §3
# [22] = tested on: ragweed (common ragweed, Ambrosia artemisiifolia); test: as above
# Text: as §2, §3
# [23] = tested on: ryegrass, Italian (italian ryegrass, Lolium multiflorum); test: as above
# Text: as §2, §3
# soybean (Glycine max) [24] = test: as above
# Text: as §2, §3
# [25] = tested on: wheat (Triticum aestivum); test: as above
# Text: as §2, §3
# [26] = 62 g ai/ha, 0 = no effect, 100 = complete control
# [27] = 62 g ai/ha, postemergence, 10 days, 0 = no effect, 100 = complete control
# [28] = Postemergence, 16 g ai/ha, greenhouse 10 days, 0 no effect, 100 complete control
structure (smiles),measurement,setting,value
COC(=O)C1CC(NC(=O)C2(C(F)(F)F)CN(c3cc(F)cc(F)c3)C(=O)O2)C1 (stereo not shown) [Compound 196],"Plant response rating, Barnyardgrass (0 to 100 scale, 0 is no effect and 100 is complete control)",[1],95
same,"Plant response rating, Ducksalad (0 to 100 scale, 0 is no effect and 100 is complete control)",[2],50
same,"Plant response rating, Rice (0 to 100 scale, 0 is no effect and 100 is complete control)",rice (Oryza sativa),85
same,"Plant response rating, Sedge, Umbrella (0 to 100 scale, 0 is no effect and 100 is complete control)",[3],95
CC1(C(=O)NC2CC=C(C(=O)OCC3CC3)C2)CN(c2cc(Cl)cc(Cl)c2)C(=O)O1 (stereo not shown) [Compound 198],"Plant response rating, Barnyardgrass (0 to 100 scale, 0 is no effect and 100 is complete control)",[1],90
same,"Plant response rating, Ducksalad (0 to 100 scale, 0 is no effect and 100 is complete control)",[2],60
same,"Plant response rating, Rice (0 to 100 scale, 0 is no effect and 100 is complete control)",rice (Oryza sativa),85
same,"Plant response rating, Sedge, Umbrella (0 to 100 scale, 0 is no effect and 100 is complete control)",[3],75
CCOC(=O)C1=CCC(NC(=O)C2(C)CN(c3cc(F)cc(F)c3)C(=O)O2)C1 (stereo not shown) [Compound 111],Barnyardgrass plant response rating,"[4]; 16 g ai/ha, 0 to 100 scale",0
same,Barnyardgrass plant response rating (0-100),[4]; [26],0
same,Blackgrass plant response rating,"[5]; 16 g ai/ha, 0 to 100 scale",0
same,Blackgrass plant response rating (0-100),[5]; [26],0
same,Corn plant response rating,"corn (Zea mays) [6]; 16 g ai/ha, 0 to 100 scale",0
same,Corn plant response rating (0-100),corn (Zea mays) [6]; [26],0
same,"Foxtail, Green plant response rating","[7]; 16 g ai/ha, 0 to 100 scale",0
same,"Foxtail, Green plant response rating (0-100)",[7]; [26],0
same,Kochia plant response rating,"kochia (Bassia scoparia) [8]; 16 g ai/ha, 0 to 100 scale",0
same,Kochia plant response rating (0-100),kochia (Bassia scoparia) [8]; [26],0
same,"Oat, Wild plant response rating","[9]; 16 g ai/ha, 0 to 100 scale",0
same,"Oat, Wild plant response rating (0-100)",[9]; [26],0
same,"Pigweed, Palmer plant response rating",[10],0
same,Ragweed plant response rating,"[11]; 16 g ai/ha, 0 to 100 scale",0
same,Ragweed plant response rating (0-100),[11]; [26],0
same,"Ryegrass, Italian plant response rating","[12]; 16 g ai/ha, 0 to 100 scale",0
same,"Ryegrass, Italian plant response rating (0-100)",[12]; [26],0
same,Soybean plant response rating,"soybean (Glycine max) [13]; 16 g ai/ha, 0 to 100 scale",100
same,Soybean plant response rating (0-100),soybean (Glycine max) [13]; [26],0
same,Wheat plant response rating,"[14]; 16 g ai/ha, 0 to 100 scale",0
same,Wheat plant response rating (0-100),[14]; [26],0
same,Barnyardgrass plant response rating (0-100),[15]; [27],20
same,Barnyardgrass plant response rating (0 to 100 scale),[15]; [28],0
same,Blackgrass plant response rating (0-100),[16]; [27],0
same,Blackgrass plant response rating (0 to 100 scale),[16]; [28],0
same,Corn plant response rating (0-100),corn (Zea mays) [17]; [27],0
same,Corn plant response rating (0 to 100 scale),corn (Zea mays) [17]; [28],0
same,"Foxtail, Green plant response rating (0-100)",[18]; [27],0
same,"Foxtail, Green plant response rating (0 to 100 scale)",[18]; [28],0
same,Kochia plant response rating (0-100),kochia (Bassia scoparia) [19]; [27],0
same,Kochia plant response rating (0 to 100 scale),kochia (Bassia scoparia) [19]; [28],0
same,"Oat, Wild plant response rating (0-100)",[20]; [27],0
same,"Oat, Wild plant response rating (0 to 100 scale)",[20]; [28],0
same,"Pigweed, Palmer plant response rating (0-100)",[21]; [27],10
same,"Pigweed, Palmer plant response rating (0 to 100 scale)",[21]; [28],0
same,Ragweed plant response rating (0-100),[22]; [27],0
same,Ragweed plant response rating (0 to 100 scale),[22]; [28],0
same,"Ryegrass, Italian plant response rating (0-100)",[23]; [27],0
same,"Ryegrass, Italian plant response rating (0 to 100 scale)",[23]; [28],0
same,Soybean plant response rating (0-100),soybean (Glycine max) [24]; [27],0
same,Soybean plant response rating (0 to 100 scale),soybean (Glycine max) [24]; [28],0
same,Wheat plant response rating (0-100),[25]; [27],20
same,Wheat plant response rating (0 to 100 scale),[25]; [28],0
same,"Plant response rating, Barnyardgrass (0 to 100 scale, 0 is no effect and 100 is complete control)",[1],0
same,"Plant response rating, Ducksalad (0 to 100 scale, 0 is no effect and 100 is complete control)",[2],0
same,"Plant response rating, Rice (0 to 100 scale, 0 is no effect and 100 is complete control)",rice (Oryza sativa),0
same,"Plant response rating, Sedge, Umbrella (0 to 100 scale, 0 is no effect and 100 is complete control)",[3],0
